Usually melting point stands for the temperature of the solid-liquid transition.

Where only a bound is given, the exact number is not on record here.

`CC(=O)Nc1ccc(C(=O)NCc2ccc(-n3c(-c4cccnc4N)nc4cc(C)cnc43)cc2)cc1` displayed a melting point of 171 to 172 °C.
`COC(=O)c1cc(Cl)cc([N+](=O)[O-])c1N` returned a melting point of 110 to 111 °C.
The result for `COc1cc2c(cc1O)CCN(Cc1cccc(NS(C)(=O)=O)c1)C2` reads 99 to 101 °C.
The result for `CC(C)(C)c1nc2cc(Cl)c([N+](=O)[O-])cc2s1` reads 65 to 69 °C; that for `CCCCCC(=O)N1c2cscc2C(=O)N(C)c2ccccc21`, 76 to 77 °C; that for `O=C1c2cc(OCc3ccc4ccccc4n3)ccc2CC1Cc1ccccc1` (centres undefined), 104 to 106 °C.
The result for `CO/N=C(/C(C)=O)C(=O)OC(C)(C)C` reads 80 to 85 °C.
The molecule `CCc1nc2c(N)nc3ccccc3c2n1CCCCNS(=O)(=O)c1ccccc1` had a melting point of 181 to 182 °C.
To `N#Cc1cn(COCCO)c2ncnc(N)c12` belongs 178 °C.
`CC(C)(C)OC(=O)N1CCC2(CC1)NC(c1nc(-c3ccccc3)c[nH]1)Cc1c2[nH]c2ccccc12` (centres undefined) registered a melting point of 118 to 120 °C.
As for `CC1(C)C(C(=O)O)C1C(C(Cl)(Br)C(F)(F)F)S(C)(=O)=O` (centres undefined), the melting point stood at 138 °C.
To `COc1cccc2c(CCCN(CC3CC3)C3COc4c(F)ccc(C(N)=O)c4C3)coc12` (centres undefined) belongs 125 to 132 °C; to `COc1ccc(C2CNC(=O)C2)cc1Br` (centres undefined), 151 to 154 °C.
The result for `N#Cc1ccncc1OC1SCC(O)C(O)C1O` (centres undefined) reads 157 °C.
In the case of `CC(CCCC(O)(C(F)(F)F)C(F)(F)F)C1CCC2C3CC=C4CC(O)CC(O)C4(C)C3CCC12C` (centres undefined), the melting point was 201 to 202 °C.
The result for `Cc1cc(CNC(=O)c2cc(-n3cnn(Cc4ccc(F)cc4)c3=O)n[nH]2)[nH]n1` reads 239 to 241 °C.
To `CCOC(=O)c1ccc(C(=O)N(C)C)cc1S(=O)(=O)NC(C)(C)C` belongs 101 to 102 °C; to `CCCCCCCCCCCCCCCCCNC(=O)Oc1cccc([N+](=O)[O-])c1`, 66 to 73 °C.
To `CS(=O)(=O)NCCCCC(=O)Nc1nc2c(s1)CCCc1ccc(F)cc1-2` belongs 145 to 147 °C; to `COc1ccc(CC[C@H]2CN(Cc3ccccc3)CCN2Cc2ccccc2)cc1`, 88 to 91 °C.
For the molecule `CN(C)c1ccccc1SCc1noc(-c2ccccc2)n1`, the melting point was found to be 100 °C.
The result for `CCOC(=O)c1c(=O)c2cc(F)c(Cl)cc2n2c(CN(C)C)csc12` reads 276 °C; that for `CCOP(=O)(OCC)SCc1ccc(-c2nc(SC)c3cc(Br)ccc3n2)cc1`, 126 to 127 °C; that for `NNc1nncc(-c2ccccc2)n1`, 144 to 146 °C.
`O=C(NC1=NCCCC1)Nc1ccc(Cl)cc1` yielded a melting point of 200 to 203 °C.
For `COc1ccc(-c2csc(C(=O)Nc3cc4ccccc4cn3)n2)cc1OC`, the melting point was 196 to 202 °C.
Molecule `Nc1ccc(NC(=O)[C@H](Cc2ccccc2)NC(=O)c2ccc(-c3nnn[nH]3)cc2)cc1` came in with a melting point of 137 °C.
`CS(=O)(=O)c1ccc(C(Cc2ccc(F)cc2)C(=O)Nc2nc3ncccc3o2)cc1` (centres undefined) displayed a melting point of 261 to 264 °C.
Molecule `CCCCCNc1nc(NCC(C)C)c2ncn(CC(=O)O)c2n1` yielded a melting point of 139 to 148 °C.
To `COc1ccc2c(Cc3ccc(O)cc3)c(-c3ccccc3)c(=O)oc2c1` belongs 235 to 236 °C; to `COc1cc2c(cc1OC)CC(NC(=O)N(C)O)C2`, 165 to 166 °C; to `Clc1ccccc1-c1ccc(-c2ccc(C3=CC=CNC3)cc2)n1CNc1ccccn1`, 163 to 166 °C.
To `COc1cc(-c2cnc3[nH]cc(C(=O)NCC(C)(C)CO)c3n2)cc(OC)c1OC` belongs 224 to 225 °C; to `COc1cc(N2CCC(N3CCN(C)CC3)CC2)ccc1Nc1ncc2cc3ccccc3n2n1`, 176 to 179 °C.
To `CNC(=O)N1CCC(CN2CCC(NC(=O)c3cc(Cl)c(N)cc3OC)CC2)CC1` belongs 202 to 204 °C.
Consider `COC(=O)c1ccccc1Oc1ccc(Br)cc1[N+](=O)[O-]`, for which the melting point lay within 82 to 83 °C.
Turning to `CN(C)C=C1C(=O)N(c2ccccc2)C(=O)N1C`, the melting point lay in the range of 131 to 133 °C.
In turn, `CCOC(=O)c1cccc(NC(=O)c2ccc(OC)c(Nc3cccc(C(F)(F)F)c3)c2)c1` gave a melting point of 169 to 170 °C.
To `CCCCCCCC(O)CC(=O)O` (centres undefined) belongs 55 to 56 °C.
In turn, `CS(=O)(=O)c1nnc(-c2ccc(Cl)cc2)o1` showed a melting point of 159 to 160 °C.
`CN1C(c2ccc(Cl)cc2)=C(C#N)CC1C(F)(F)F` (centres undefined) registered a melting point of 158 to 160 °C.
As to `CCOC(=O)NC(=O)CNS(=O)(=O)c1ccc(N2CCC(NC[C@H](O)c3ccc(O)c(NS(C)(=O)=O)c3)CC2)cc1`, the melting point lay within 98 to 105 °C.
For the molecule `CCCc1cn(C(C)(C)C(=O)N(C)C)nc1-c1ccccc1`, the melting point was in the range of 98.5 to 101 °C.
To `COc1ccc(S(=O)(=O)CC(O)(CS(=O)(=O)c2ccc(-c3ccccc3)cc2)C(=O)NO)cc1` (centres undefined) belongs 72 to 76 °C; to `Cc1cncn1-c1cccc([N+](=O)[O-])c1`, 130 to 132 °C; to `O=C(N[C@H]1CC[C@H](O)CC1)OCc1ccccc1`, 148 to 151 °C.
To `COC(=O)CN(C)C(=O)c1c(OCc2ccccc2)ccc2c(C(F)(F)F)c(OC)ccc12` belongs 95 to 98 °C.
The result for `O=c1[nH]c2ccc3c(c2[nH]1)OC(CNCCCCc1ccccc1)CO3` (centres undefined) reads 224 to 226 °C; that for `COC=C(C(=O)OC)c1csc2ccc(C=O)cc12`, 134 to 135 °C.
In turn, `Cc1oc(-c2ccccc2)nc1COc1ccc(C=CC=O)cc1` yielded a melting point of 114 to 115 °C.
Take `Brc1cccc2c1Sc1c(Br)cccc1S2`: the melting point lay in the range of 176 to 178 °C.
On to `COc1ccccc1Cc1ccc2[nH]c3cnn(C)c3c(=O)c2c1`, for which the melting point is 255 °C.
Molecule `COc1ccc(Cc2nc3n(c2Cc2ccc(OC)cc2)CCS3)cc1` gave a melting point of 154 to 156 °C.
The molecule `COc1ccccc1SCC1SCCN1C(=O)CCl` (centres undefined) returned a melting point of 127 to 129 °C.
The result for `NC(=O)c1nccn1C1Cc2ccc(Cl)cc2C1=O` (centres undefined) reads 190 °C; that for `O=C(NCCCn1cnc(-c2ccccc2)c1)c1ccc(Cl)cc1`, 103 to 105 °C; that for `Cn1c(=O)oc(=O)c2cc(F)ccc21`, 133 °C.
The result for `O=C(O)Cc1c(C(=O)c2cccc(O)c2)[nH]c2cc(Cl)ccc12` reads 213 to 215 °C; that for `Brc1cnn2ccc(N3CCNCC3)nc12`, 108 to 109 °C.
To `COC(=O)C(c1ccccc1)N1CCN(c2ccc(NC(=O)c3ccccc3-c3ccccc3)cc2)CC1` (centres undefined) belongs 125 °C; to `CC(=O)SCCC1NSc2cc(S(N)(=O)=O)c(Cl)cc2N1` (centres undefined), 192 to 195 °C; to `Cn1cc(-c2ccc3nc(NC(=O)c4ccc(C(C)(C)C)nc4)cn3n2)cn1`, 251 to 252 °C.
In the case of `CC(C)(C)OC(=O)NCC(CCn1ccc(=O)[nH]c1=O)COC(c1ccccc1)(c1ccccc1)c1ccccc1` (centres undefined), the melting point fell in the range of 86 to 88 °C.
To `CC(C)n1cc(-c2nc(C(N)=O)c(N)nc2-c2ccccc2OC(F)(F)F)ccc1=O` belongs 206 °C; to `O=C(O)C1CSC(c2ccccc2-c2ccccc2)N1` (mixture of isomers), 190 °C.
The result for `CCOC(OCC)(c1ccc(F)cc1)C1CCN(CCc2c(C)nc3scc(C)n3c2=O)CC1` reads 116 °C; that for `CCCCC(=O)c1c(-c2ccc3c(C)c(OCC(=O)O)ccc3c2)oc2ccccc12`, 153 to 155 °C.
The result for `O=C(NCCl)Oc1cccc(Cl)c1` reads 90 °C.
For the molecule `CO[C@]1(c2cccc(OCc3ccc4c(ccc(=O)n4C)c3)c2)CCO[C@@H](C)C1`, the melting point was 88 to 90 °C.
The result for `Cc1c2n(c3ccccc13)C(=O)N(C(C)c1ncn(C(c3ccccc3)(c3ccccc3)c3ccccc3)c1C)CC2` (centres undefined) reads 71 to 76 °C; that for `N#Cc1ccc(OCCCCCCl)cc1`, 47 °C; that for `O=[N+]([O-])c1ccc(OS(=O)(=O)c2ccccc2I)cc1`, 131 to 133 °C.
The result for `CCS(=O)c1ccc(-c2coc3ccc(-c4nnc(C)o4)cc23)cc1` (centres undefined) reads 156 to 157 °C; that for `O=c1[nH]c(N2CCNC(CO)C2)cc2c(Br)cccc12` (centres undefined), over 230 °C; that for `CCOCc1nc2c(N)nc(C)c(C)c2n1CCOCc1ccccc1`, 107 to 108 °C.
For `CC(C)(CS(=O)(=O)c1ccc(Oc2ccc(OC(F)(F)F)cc2)cc1)N(O)C=O`, the melting point was in the range of 128 to 129 °C.
To `CCCCC(=O)Nc1ccccc1C(F)(F)F` belongs 63 °C; to `O=c1c(-c2ccccc2O)coc2cc(O)ccc12`, 196 to 198 °C; to `COc1cc(F)c(C)cc1[N+](=O)[O-]`, 71 to 74 °C.
The result for `O=C(O)c1ccc2cnc3ccccc3c2c1` reads 155 °C; that for `CC(C)Oc1ccc(CO)c(Oc2ncc(C(F)(F)F)cc2Cl)c1`, 63 to 64 °C.
As for `Cc1cccc(NC(=O)NC(C(=O)O)C(C)C)c1` (racemic), the melting point worked out at 170 °C.
To `COc1cc2nc(N3CCN(C(=O)C=Cc4ccc(N(C)C)cc4)CC3)nc(N)c2cc1OC` belongs 288 to 289 °C; to `Cc1ccc(OCc2ccccc2)c(C(CCN2CC3CC3(C)C2)c2ccccc2)c1` (centres undefined), 74.9 to 76 °C.
The result for `CC(CO)c1ccc(-c2ccc(F)cc2F)c(F)c1` (centres undefined) reads 58 to 59 °C.
The result for `Cc1c(-c2c[nH]cc2C#N)cccc1C(F)(F)F` reads 99 to 100 °C; that for `CNC(=O)Nc1ccc(CCN2CCC(Nc3nc4ccccc4n3Cc3ccc(F)cc3)CC2)cc1`, 300 °C.
Take `CC1(C)N=C(Cl)c2cc(C#N)ccc2O1`: the melting point was in the range of 124 to 126 °C.
To `Cc1ccn(-c2ccc(S(C)(=O)=O)cc2)c1-c1ccc(F)cc1` belongs 157 to 158 °C.

The values are drawn from a melting point compilation (Tetko et al.; mined from patent text by program, amines drawn as free bases though some values may be those of a salt).
